In ChEMBL document CHEMBL1177695, “Discovery and development of natural product-derived chemotherapeutic agents based on a medicinal chemistry approach” (J Nat Prod, 2010):
Converted amounts (≈) assume the structure as drawn. The source made the active and inactive calls. The rule behind the calls is not given here.

Columns and labels:
SK-BR-3 [1] = experiment: Cytotoxicity against human SK-BR-3 cells overexpressing HER2; format: functional; settings: read-out: ED50 (the source's name)
MCF7 [2] = experiment: Cytotoxicity against human MCF7 cells; format: functional; settings: read-out: ED50 (the source's name)
ZR-75-1 [3] = experiment: Cytotoxicity against human ZR-75-1 cells; format: functional; settings: read-out: ED50 (the source's name)
Tubulin = experiment: Inhibition of tubulin polymerization
Hep-2 (human) = experiment: Cytotoxicity against human Hep-2 cells
[4] = Inhibition of tubulin polymerization
KB [5] = experiment: Cytotoxicity against CPT-resistant human KB cells […] reduced level of topoisomerase; format: functional, cell-based
[6] = Cytotoxicity against human KB-7d cells expressing multidrug-resistant protein; format: functional, cell-based; settings: KB7D
[7] = Cytotoxicity against vincristine-resistant human KB/VCR cells overexpressing P-glycoprotein; format: functional, cell-based
KB [8] = experiment: Cytotoxicity against human KB cells; format: functional, cell-based
A549 [9] = experiment: Cytotoxicity against human A549 cells; format: functional, cell-based
[10] = tested on: Human immunodeficiency virus 1; experiment: Antiviral activity against HIV1 infected in human H9 cells after 4 days by p24 antigen ELISA; format: functional, organism-based; settings: Human immunodeficiency virus 1, H9, 96 h
[11] = tested on: Human immunodeficiency virus 1; experiment: Anti-HIV-1 activity in human H9 cells; settings: H9, 96 h
[12] = Therapeutic index, ratio of IC50 for human H9 cells to EC50 for HIV1; format: cell-based; settings: read-out: TI
OVCAR-3 = experiment: Antitumor activity against human OVCAR-3 cells xenografted in mouse assessed as increase in mouse life span; format: functional, cell-based
H9 = experiment: Cytotoxicity against human H9 cells after 4 days by coulter counter; format: cell-based; settings: Homo sapiens, H9, 96 h
[13] = Therapeutic index, ratio of IC50 for human H9 cells to EC50 for HIV 3B; format: cell-based; settings: read-out: TI
[14] = tested on: Human immunodeficiency virus 1; experiment: Antiviral activity against multidrug-resistant HIV1 RTMDR1 infected in H9 cells assessed as inhibition of viral replication by p24 antigen ELISA; format: functional, organism-based; settings: Human immunodeficiency virus 1, RTMDR1, H9
[15] = Therapeutic index, ratio of IC50 for human H9 cells to EC50 for multidrug-resistant HIV1 RTMDR1; format: cell-based; settings: read-out: TI
[16] = Cytotoxicity against human KBVIN cells after 3 days by sulforhodamine B assay; format: functional, cell-based; settings: 72 h
HUVEC = experiment: Cytotoxicity against HUVEC after 3 days by sulforhodamine B assay; format: cell-based; settings: Homo sapiens, 72 h
PC-3 = experiment: Cytotoxicity against human PC3 cells after 3 days by sulforhodamine B assay; format: functional, cell-based; settings: PC-3, 72 h
HCT-8 = experiment: Cytotoxicity against human HCT8 cells after 3 days by sulforhodamine B assay; format: functional, cell-based; settings: HCT-8, 72 h
A-431 = experiment: Cytotoxicity against human A431 cells after 3 days by sulforhodamine B assay; format: functional, cell-based; settings: A-431, 72 h
1A9 = experiment: Cytotoxicity against human 1A9 cells after 3 days by sulforhodamine B assay; format: functional, cell-based; settings: 1A9, 72 h
A549 [17] = experiment: Cytotoxicity against human A549 cells after 3 days by sulforhodamine B assay; format: functional, cell-based; settings: A549, 72 h
KB [18] = experiment: Cytotoxicity against human KB cells after 3 days by sulforhodamine B assay; format: functional, cell-based; settings: 72 h
MCF7 [19] = experiment: Cytotoxicity against human MCF7 cells after 72 hrs by sulforhodamine B assay; format: functional; settings: MCF7, 72 h, read-out: ED50 (the source's name)
MDA-MB-231 = experiment: Cytotoxicity against human MDA-MB-231 cells after 72 hrs by sulforhodamine B assay; format: functional; settings: MDA-MB-231, 72 h, read-out: ED50 (the source's name)
ZR-75-1 [20] = experiment: Cytotoxicity against human ZR-75-1 cells after 72 hrs by sulforhodamine B assay; format: functional; settings: ZR-75-1, 72 h, read-out: ED50 (the source's name)
SK-BR-3 [21] = experiment: Cytotoxicity against human SK-BR-3 cells after 72 hrs by sulforhodamine B assay; format: functional; settings: SK-BR-3, 72 h, read-out: ED50 (the source's name)
[22] = Antitumor activity against rat Walker 256 cells allografted in rat at 2.5 mg/kg relative to control; format: functional
P388 = experiment: Antitumor activity against mouse P388 cells allografted in mouse at 8 mg/kg relative to control; format: functional

Q: What does the source list for `CCc1cccc2c1ccc1c3occ(C)c3c(=O)oc21`?
A: EC50 (SK-BR-3 [1]): 0.1 µg/mL (≈ 0.359 µM); EC50 (MCF7 [2]): 0.45 µg/mL (≈ 1.62 µM); EC50 (ZR-75-1 [3]): 0.18 µg/mL (≈ 0.647 µM)

Q: With `Cc1cnc2nc(-c3cccc4ccccc34)cc(O)c2c1` as the compound, how does the IC50 (Tubulin) read?
A: 550 nM

Q: Which ED50 (Hep-2 (human)) does the source give for `C[C@@H]1C[C@H]2OC(=O)[C@@H](C)[C@H]2[C@H](O)[C@]2(C)C(=O)CC[C@@H]12` here?
A: inactive

Q: For `COc1ccc2c(c1)c(=O)ccc1cc(OC)c(OC)c(OC)c12`, which IC50 [4] is on record?
A: 1000 nM

Q: And the EC50 (KB [5])?
A: 0.042 µg/mL (≈ 0.129 µM)

Q: And the EC50 [6]?
A: 0.024 µg/mL (≈ 0.0735 µM)

Q: What about the EC50 [7] of the same compound?
A: 0.016 µg/mL (≈ 0.049 µM)

Q: And the EC50 (KB [8])?
A: 0.029 µg/mL (≈ 0.0889 µM)

Q: With `COc1ccc2c(CNCCCCCCO)cc3cc4c(cc3c2c1)OCO4` [listing 1 of 2 here] as the compound, how does the IC50 (A549 [9]; a549) read?
A: 160 nM

Q: Which IC50 [10] does the source give for `C=C(C)[C@@H]1CC[C@]2(C(=O)O)CC[C@]3(C)[C@H](CC[C@@H]4[C@@]5(C)CC[C@H](OC(=O)/C=C/C)C(C)(C)[C@@H]5CC[C@]43C)[C@@H]12` here?
A: 48000 nM

Q: And the EC50 [11]?
A: 19000 nM

Q: With `COc1ccc2c(c1)C(O)CCc1cc(OC)c(OC)c(OC)c1-2` (stereo not drawn) as the compound, how does the IC50 [4] read?
A: 2000 nM

Q: What about the EC50 (KB [5]) of the same compound?
A: 0.022 µg/mL (≈ 0.0666 µM)

Q: What about the EC50 [6] of the same compound?
A: 0.013 µg/mL (≈ 0.0393 µM)

Q: And the EC50 [7]?
A: 0.013 µg/mL (≈ 0.0393 µM)

Q: What about the EC50 (KB [8]) of the same compound?
A: 0.02 µg/mL (≈ 0.0605 µM)

Q: What does the source list for `C=C(C)[C@@H]1CC[C@]2(C(=O)O)CC[C@]3(C)[C@H](CC[C@@H]4[C@@]5(C)CC[C@H](OC(=O)CC(C)(C)CC(=O)O)C(C)(C)[C@@H]5CC[C@]43C)[C@@H]12`?
A: selectivity ratio [12]: 2000; IC50 [10]: 4500 nM; EC50 [11]: 3 nM

Q: Which IC50 (A549 [9]; Homo sapiens, A549) does the source give for `COc1ccc2c(CNCCCCCCO)cc3cc4c(cc3c2c1)OCO4` [listing 2 of 2 here] here?
A: 130 nM

Q: For `O=c1cc(-c2ccccc2F)[nH]c2cc3c(cc12)OCO3`, which IC50 [4] is on record?
A: 850 nM

Q: And the Activity (OVCAR-3)?
A: 130%

Q: With `Cc1cc(=O)c2ccc3c(c2o1)[C@@H](OC(=O)C12CCC(C)(C(=O)O1)C2(C)C)[C@@H](OC(=O)C12CCC(C)(C(=O)O1)C2(C)C)C(C)(C)O3` (stereo partly drawn) as the compound, how does the IC50 (H9) read?
A: 11800 nM

Q: And the selectivity ratio [13]?
A: 8600

Q: And the EC50 [14]?
A: 190 nM

Q: What about the selectivity ratio [15] of the same compound?
A: 63

Q: Which IC50 [4] does the source give for `COc1ccc2c(c1)C(=O)CCc1cc(OC)c(OC)c(OC)c1-2` here?
A: 1000 nM

Q: And the EC50 (KB [5])?
A: 0.052 µg/mL (≈ 0.158 µM)

Q: What about the EC50 [6] of the same compound?
A: 0.025 µg/mL (≈ 0.0761 µM)

Q: And the EC50 [7]?
A: > 0.063 µg/mL

Q: What about the EC50 (KB [8]) of the same compound?
A: 0.057 µg/mL (≈ 0.174 µM)

Q: What does the source list for `COC1=C(C)C(O)=C(C(=O)/C=C/c2ccccc2)C(=O)C1(C)C` [DESMOSDUMOTIN C]?
A: EC50 [16]: 3 µg/mL (≈ 9.6 µM); EC50 (HUVEC): 3 µg/mL (≈ 9.6 µM); EC50 (PC-3): 3 µg/mL (≈ 9.6 µM); EC50 (HCT-8): 3 µg/mL (≈ 9.6 µM); EC50 (A-431): 3 µg/mL (≈ 9.6 µM); EC50 (1A9): 3 µg/mL (≈ 9.6 µM); EC50 (A549 [17]): 3 µg/mL (≈ 9.6 µM); EC50 (KB [18]): 3 µg/mL (≈ 9.6 µM)

Q: For `C=C(C)[C@@H]1CC[C@]2(C(=O)O)CC[C@]3(C)[C@H](CC[C@@H]4[C@@]5(C)CC[C@H](OC(=O)CC(C)(C)C(=O)O)C(C)(C)[C@@H]5CC[C@]43C)[C@@H]12` [BEVIRIMAT], which selectivity ratio [12] is on record?
A: 20000

Q: And the EC50 [11]?
A: 0.35 nM

Q: For `Cc1cnc2[nH]c(-c3cccc(Cl)c3)cc(=O)c2c1`, which IC50 (Tubulin) is on record?
A: 720 nM

Q: With `CCCc1cccc2c1ccc1c3occ(C)c3c(=O)oc21` as the compound, how does the EC50 (MCF7 [19]) read?
A: 1.2 µg/mL (≈ 4.1 µM)

Q: What about the EC50 (MDA-MB-231) of the same compound?
A: > 10 µg/mL

Q: And the EC50 (ZR-75-1 [20])?
A: 0.3 µg/mL (≈ 1.03 µM)

Q: What about the EC50 (SK-BR-3 [21]) of the same compound?
A: 0.1 µg/mL (≈ 0.342 µM)

Q: Which T/C [22] does the source give for `C=C1C(=O)O[C@@H]2C[C@@H](C)[C@@H]3[C@@H]4CC(=O)[C@@]3(C[C@H]12)[C@@]1(C4)C(=O)O[C@@H]2C[C@@H](C)[C@@H]3C=CC(=O)[C@@]3(C)[C@@H](O)[C@@H]21` [MICROLENIN] here?
A: 173%

Q: With `CCCC1=C(OC)C(CCC)(CCC)C(=O)/C(=C(O)\C=C\c2ccc(Br)cc2)C1=O` as the compound, how does the EC50 [16] read?
A: 0.9 µg/mL (≈ 1.89 µM)

Q: And the EC50 (HUVEC)?
A: 0.9 µg/mL (≈ 1.89 µM)

Q: And the EC50 (PC-3)?
A: 0.9 µg/mL (≈ 1.89 µM)

Q: And the EC50 (HCT-8)?
A: 0.9 µg/mL (≈ 1.89 µM)

Q: And the EC50 (A-431)?
A: 0.9 µg/mL (≈ 1.89 µM)

Q: And the EC50 (1A9)?
A: 0.9 µg/mL (≈ 1.89 µM)

Q: What about the EC50 (A549 [17]) of the same compound?
A: 0.9 µg/mL (≈ 1.89 µM)

Q: What about the EC50 (KB [18]) of the same compound?
A: 0.9 µg/mL (≈ 1.89 µM)

Q: With `C=C1C(=O)O[C@@H]2C[C@@H](C)[C@H]3C=CC(=O)[C@@]3(C)[C@@H](OC(=O)CCCC(=O)O[C@H]3[C@H]4C(=C)C(=O)O[C@@H]4C[C@H](C)[C@H]4C=CC(=O)[C@]43C)[C@@H]12` as the compound, how does the T/C (P388) read?
A: 195%
